The values below come from paper PMC3140774 (Journal of Medicinal Chemistry, 2011).

For assay [1], the system named is bloodstream form T. brucei (strain 427). In words: Trypanocidal assay, growth inhibition of cultured bloodstream-form T. brucei. Particulars: for times higher activity than C-methyl analogue 7c / times higher activity than the parent 7a: free base form. The format is cell-based, Trypanosoma brucei.
The test system of assay [2] is procyclic (insect form) T. brucei. In words: Activity against cultured procyclic. The format is cell-based, Trypanosoma brucei.
The test system of assay [3] is T. cruzi epimastigotes (CL Brener clone). In words: Growth inhibition of T. cruzi epimastigotes. The format is cell-based, Trypanosoma cruzi. Particulars: free base.
Assay [4] relates to Bloodstream-form T. brucei. Particulars: cited from earlier work.

pIC50: −log10 of the molar value.

As to `O=C1CNC2(C(=O)N1)C1CC3CC(C1)CC2C3` (stereo not shown) [6a], the “inhibition of parasite growth, preliminary screen” value in assay [1] (5 μg mL^–1, bloodstream-form T. brucei) is “inactive”.

On to `O=C(CN1C(=O)[C@@H](Cc2ccccc2)NC2(C1=O)C1CC3CC(C1)CC2C3)NO` (stereo partly shown) [7e], for which, in assay [1] (bloodstream form), the “times higher activity than C-methyl analogue 7c” value is on record as 8–20 fold and the “times higher activity than the parent 7a” value is given as 5.3–13 fold. Moreover, the “times more resistant: procyclic versus bloodstream-form T. brucei” value in assay [2] is on record as 10–50 fold.

Consider `O=C(CN1C(=O)CNC2(CCCCCC2)C1=O)NO` [10a], for which the “fold decrease in activity against T. brucei compared with 7a” value (shortened to “fold decrease in activity”) in assay [1] (free base, bloodstream form) was 21 fold.

As to `C[C@@H]1NC2(CCCCCCC2)C(=O)N(CC(=O)NO)C1=O` [9c], in assay [1] (free base, bloodstream form), the “fold more potent against T. brucei than 9a” value is 2.4 fold.

For `O=C(CN1C(=O)[C@H](Cc2ccccc2)NC2(C1=O)C1CC3CC(C1)CC2C3)NO` (stereo partly shown) [7d], the “fold more potent against T. cruzi than 7a” value in assay [3] is on record as 26 fold. For the same molecule, in assay [1] (bloodstream-form T. brucei), the “fold lower potency of hydrochloride versus free base” value is listed as 6.2 fold. In assay [1] (bloodstream form), the “times higher activity than C-methyl analogue 7c” value is on record as 8–20 fold and the “times higher activity than the parent 7a” value is 5.3–13 fold. Also, in assay [1] (tested as hydrochloride salts), the “factor less potent than 7e (R-enantiomer)” value is on record as 4.6 fold and the “factor less potent than 8 (racemic mixture)” value was determined as 2.3 fold. In addition, the “times more resistant: procyclic versus bloodstream-form T. brucei” value in assay [2] is 10–50 fold.

With `O=C(CN1C(=O)C(Cc2ccccc2)NC2(C1=O)C1CC3CC(C1)CC2C3)NO` (stereo not shown) [compound 8], in assay [1] (bloodstream form), the “times higher activity than C-methyl analogue 7c” value is recorded as 8–20 fold and the “times higher activity than the parent 7a” value was 5.3–13 fold. In assay [2], the “times more resistant: procyclic versus bloodstream-form T. brucei” value is 10–50 fold.

Turning to `O=C1ON=C2C3CC4CC(C3)CC12C4` [compound 3], the “potency fold greater than amantadine” value in assay [4] (T. brucei in vitro) was “at least 45 fold”.

For the molecule `CC(N)C12CC3CC(CC(C3)C1)C2` (stereo not shown) [rimantadine], the pIC50 in assay [4] (read-out: IC50 bloodstream-form T. brucei, in vitro) is 5.15.

`CN1CC(=O)N(CC(=O)NO)C(=O)C12CCCCCCC2` [9b]: the “fold more potent against T. brucei than 9a” value in assay [1] (free base, bloodstream form) was determined as 1.9 fold.

Consider `C[C@@H]1NC2(C(=O)N(CC(=O)NO)C1=O)C1CC3CC(C1)CC2C3` (stereo partly shown) [7c], for which the “fold lower potency of hydrochloride versus free base” value in assay [1] (bloodstream-form T. brucei) was 3 fold. Besides, the “fold decrease in activity” value in assay [1] (free base, bloodstream form) was 1.5 fold.

Regarding `O=C(CN1C(=O)[C@H](Cc2ccccc2)NC2(CCCCCCC2)C1=O)NO` [9d], in assay [1] (free base, bloodstream form), the “fold more potent against T. brucei than 9a” value was determined as 10 fold and the “times more trypanocidal activity than C-methyl counterpart 9c” value amounted to 4.3 fold.

`O=C(CN1C(=O)CNC2(CCCCCCC2)C1=O)NO` [9a]: the “fold decrease in activity” value in assay [1] (free base, bloodstream form) was 3.3 fold.

As for `CN1CC(=O)N(CC(=O)NO)C(=O)C12C1CC3CC(C1)CC2C3` (stereo not shown) [7b], the “fold more potent against T. cruzi than 7a” value in assay [3] is listed as 1.5 fold. The “fold lower potency of hydrochloride versus free base” value in assay [1] (bloodstream-form T. brucei) is 1.8 fold. The “fold decrease in activity” value in assay [1] (free base, bloodstream form) stood at 2.1 fold.

Turning to `CN1CC(=O)N(CC(=O)NO)C(=O)C12CCCCCC2` [10b], the “times more potent against T. brucei than 10a” value in assay [1] (free base, bloodstream form) is given as 6.6 fold.
